ChEMBL document CHEMBL4414672, “Synthesis of certain benzothieno[3,2-d]pyrimidine derivatives as a selective SIRT2 inhibitors” (Eur J Med Chem, 2020)

How the values were obtained:
Assay type in all cases: functional
MCF7 = experiment: Growth inhibition of human MCF7 cells at 10^-5 M incubated for 48 hrs by sulforhodamine B assay; details: MCF7, 48 h, read-out: GI
KM12 = experiment: Growth inhibition of human KM12 cells at 10^-5 M incubated for 48 hrs by sulforhodamine B assay; details: KM12, 48 h, read-out: GI
SW-620 = experiment: Growth inhibition of human SW620 cells at 10^-5 M incubated for 48 hrs by sulforhodamine B assay; details: SW-620, 48 h, read-out: GI
DU-145 = experiment: Growth inhibition of human DU145 cells at 10^-5 M incubated for 48 hrs by sulforhodamine B assay; details: DU-145, 48 h, read-out: GI
NCI-H322M = experiment: Growth inhibition of human NCI-H322M cells at 10^-5 M incubated for 48 hrs by sulforhodamine B assay; details: read-out: GI
SK-MEL-28 = experiment: Growth inhibition of human SK-MEL-28 cells at 10^-5 M incubated for 48 hrs by sulforhodamine B assay; details: SK-MEL-28, 48 h, read-out: GI
K562 = experiment: Growth inhibition of human K562 cells at 10^-5 M incubated for 48 hrs by sulforhodamine B assay; details: K562, 48 h, read-out: GI
TK-10 = experiment: Growth inhibition of human TK10 cells at 10^-5 M incubated for 48 hrs by sulforhodamine B assay; details: TK-10, 48 h, read-out: GI
A549 = experiment: Growth inhibition of human A549/ATCC cells at 10^-5 M incubated for 48 hrs by sulforhodamine B assay; details: A549, 48 h, read-out: GI
HOP-62 = experiment: Growth inhibition of human HOP62 cells at 10^-5 M incubated for 48 hrs by sulforhodamine B assay; details: HOP-62, 48 h, read-out: GI
EKVX = experiment: Growth inhibition of human EKVX cells at 10^-5 M incubated for 48 hrs by sulforhodamine B assay; details: read-out: GI
ACHN = experiment: Growth inhibition of human ACHN cells at 10^-5 M incubated for 48 hrs by sulforhodamine B assay; details: read-out: GI
SF-295 = experiment: Growth inhibition of human SF295 cells at 10^-5 M incubated for 48 hrs by sulforhodamine B assay; details: SF-295, 48 h, read-out: GI
CCRF-CEM = experiment: Growth inhibition of human CCRF-CEM cells at 10^-5 M incubated for 48 hrs by sulforhodamine B assay; details: read-out: GI
T47D = experiment: Growth inhibition of human T47D cells at 10^-5 M incubated for 48 hrs by sulforhodamine B assay; details: read-out: GI
MDA-MB-468 = experiment: Growth inhibition of human MDA-MB-468 cells at 10^-5 M incubated for 48 hrs by sulforhodamine B assay; details: MDA-MB-468, 48 h, read-out: GI
SR = experiment: Growth inhibition of human SR cells at 10^-5 M incubated for 48 hrs by sulforhodamine B assay; details: read-out: GI
Malme-3M = experiment: Growth inhibition of human MALME-3M cells at 10^-5 M incubated for 48 hrs by sulforhodamine B assay; details: read-out: GI
OVCAR-4 = experiment: Growth inhibition of human OVCAR4 cells at 10^-5 M incubated for 48 hrs by sulforhodamine B assay; details: OVCAR-4, 48 h, read-out: GI
SF-268 = experiment: Growth inhibition of human SF268 cells at 10^-5 M incubated for 48 hrs by sulforhodamine B assay; details: SF-268, 48 h, read-out: GI
OVCAR-3 = experiment: Growth inhibition of human OVCAR3 cells at 10^-5 M incubated for 48 hrs by sulforhodamine B assay; details: OVCAR-3, 48 h, read-out: GI
Hs-578T = experiment: Growth inhibition of human Hs 578T cells at 10^-5 M incubated for 48 hrs by sulforhodamine B assay; details: read-out: GI
OVCAR-8 = experiment: Growth inhibition of human OVCAR8 cells at 10^-5 M incubated for 48 hrs by sulforhodamine B assay; details: OVCAR-8, 48 h, read-out: GI
HCT-116 = experiment: Growth inhibition of human HCT116 cells at 10^-5 M incubated for 48 hrs by sulforhodamine B assay; details: HCT-116, 48 h, read-out: GI
NCI-H522 = experiment: Growth inhibition of human NCI-H522 cells at 10^-5 M incubated for 48 hrs by sulforhodamine B assay; details: NCI-H522, 48 h, read-out: GI
MDA-MB-435 = experiment: Growth inhibition of human MDA-MB-435 cells at 10^-5 M incubated for 48 hrs by sulforhodamine B assay; details: MDA-MB-435, 48 h, read-out: GI
MDA-MB-231 = experiment: Growth inhibition of human MDA-MB-231 cells at 10^-5 M incubated for 48 hrs by sulforhodamine B assay; details: MDA-MB-231, 48 h, read-out: GI
CAKI-1 = experiment: Growth inhibition of human Caki1 cells at 10^-5 M incubated for 48 hrs by sulforhodamine B assay; details: CAKI-1, 48 h, read-out: GI
IGROV-1 = experiment: Growth inhibition of human IGROV1 cells at 10^-5 M incubated for 48 hrs by sulforhodamine B assay; details: IGROV-1, 48 h, read-out: GI
NCI-H23 = experiment: Growth inhibition of human NCI-H23 cells at 10^-5 M incubated for 48 hrs by sulforhodamine B assay; details: NCI-H23, 48 h, read-out: GI
HL-60(TB) = experiment: Growth inhibition of human HL-60(TB) cells at 10^-5 M incubated for 48 hrs by sulforhodamine B assay; details: HL-60, 48 h, read-out: GI
MOLT-4 = experiment: Growth inhibition of human MOLT4 cells at 10^-5 M incubated for 48 hrs by sulforhodamine B assay; details: MOLT-4, 48 h, read-out: GI
A498 = experiment: Growth inhibition of human A498 cells at 10^-5 M incubated for 48 hrs by sulforhodamine B assay; details: A498, 48 h, read-out: GI
HOP-92 = experiment: Growth inhibition of human HOP92 cells at 10^-5 M incubated for 48 hrs by sulforhodamine B assay; details: HOP-92, 48 h, read-out: GI
NCI-H226 = experiment: Growth inhibition of human NCI-H226 cells at 10^-5 M incubated for 48 hrs by sulforhodamine B assay; details: NCI-H226, 48 h, read-out: GI
HT-29 = experiment: Growth inhibition of human HT-29 cells at 10^-5 M incubated for 48 hrs by sulforhodamine B assay; details: HT-29, 48 h, read-out: GI
UO-31 = experiment: Growth inhibition of human UO31 cells at 10^-5 M incubated for 48 hrs by sulforhodamine B assay; details: UO-31, 48 h, read-out: GI
M14 = experiment: Growth inhibition of human M14 cells at 10^-5 M incubated for 48 hrs by sulforhodamine B assay; details: M14, 48 h, read-out: GI
BT-549 = experiment: Growth inhibition of human BT549 cells at 10^-5 M incubated for 48 hrs by sulforhodamine B assay; details: BT-549, 48 h, read-out: GI

SMILES | inhibition of growth at 10 µM (MCF7) [%] | inhibition of growth at 10 µM (KM12) [%] | inhibition of growth at 10 µM (SW-620) [%] | inhibition of growth at 10 µM (DU-145) [%] | inhibition of growth at 10 µM (NCI-H322M) [%] | inhibition of growth at 10 µM (SK-MEL-28) [%] | inhibition of growth at 10 µM (K562) [%] | inhibition of growth at 10 µM (TK-10) [%] | inhibition of growth at 10 µM (A549) [%] | inhibition of growth at 10 µM (HOP-62) [%] | inhibition of growth at 10 µM (EKVX) [%] | inhibition of growth at 10 µM (ACHN) [%] | inhibition of growth at 10 µM (SF-295) [%] | inhibition of growth at 10 µM (CCRF-CEM) [%] | inhibition of growth at 10 µM (T47D) [%] | inhibition of growth at 10 µM (MDA-MB-468) [%] | inhibition of growth at 10 µM (SR) [%] | inhibition of growth at 10 µM (Malme-3M) [%] | inhibition of growth at 10 µM (OVCAR-4) [%] | inhibition of growth at 10 µM (SF-268) [%] | also measured
O=C1Nc2c(sc3ccc(Cl)cc23)C(c2cccc([N+](=O)[O-])c2)N1 (stereo not drawn) | 21.8 | 3.73 | -3.52 | -4.61 | 10.4 | -5.57 | 12.9 | -4.8 | 1.5 | 8.74 | 25.3 | 9.21 | 1.41 | -13.9 | 16.3 | 8.51 | 20.8 | 16.6 | 7.21 | 6.35 | inhibition of growth at 10 µM (OVCAR-3): -1.08%; inhibition of growth at 10 µM (Hs-578T): 3.78%; inhibition of growth at 10 µM (OVCAR-8): 4.06%; inhibition of growth at 10 µM (HCT-116): 5.37%; inhibition of growth at 10 µM (NCI-H522): 9.73%; inhibition of growth at 10 µM (MDA-MB-435): -2.51%; inhibition of growth at 10 µM (MDA-MB-231): 12.5%; inhibition of growth at 10 µM (CAKI-1): 20.3%; inhibition of growth at 10 µM (IGROV-1): 15.6%; inhibition of growth at 10 µM (NCI-H23): 9.8%; inhibition of growth at 10 µM (HL-60(TB)): 1.94%; inhibition of growth at 10 µM (MOLT-4): 11%; inhibition of growth at 10 µM (A498): 15.5%; inhibition of growth at 10 µM (HOP-92): 17.8%; inhibition of growth at 10 µM (NCI-H226): 17.5%; inhibition of growth at 10 µM (HT-29): -3%; inhibition of growth at 10 µM (UO-31): 35.2%; inhibition of growth at 10 µM (M14): 2.62%; inhibition of growth at 10 µM (BT-549): 7.02%
O=C1Nc2c(sc3ccc(Cl)cc23)C(c2ccccc2O)N1 (stereo not drawn) | -8.18 | -2.4 | -1.05 | -8.18 | 7.77 | -7.33 | 14.7 | -18.6 | -1.35 | 13.9 | 21.9 | 9.18 | 3.22 | -4.19 | 18.1 | 0.19 | 19.1 | 15.8 | 9.71 | 7.91 | inhibition of growth at 10 µM (OVCAR-3): 4.91%; inhibition of growth at 10 µM (Hs-578T): 3.74%; inhibition of growth at 10 µM (OVCAR-8): 3.5%; inhibition of growth at 10 µM (HCT-116): 4.28%; inhibition of growth at 10 µM (NCI-H522): 16%; inhibition of growth at 10 µM (MDA-MB-435): -3.03%; inhibition of growth at 10 µM (MDA-MB-231): 19.7%; inhibition of growth at 10 µM (CAKI-1): 18.5%; inhibition of growth at 10 µM (IGROV-1): 19.7%; inhibition of growth at 10 µM (NCI-H23): 13.5%; inhibition of growth at 10 µM (HL-60(TB)): 1.61%; inhibition of growth at 10 µM (MOLT-4): 14.7%; inhibition of growth at 10 µM (A498): 17.4%; inhibition of growth at 10 µM (HOP-92): 21%; inhibition of growth at 10 µM (NCI-H226): 18.7%; inhibition of growth at 10 µM (HT-29): -3.51%; inhibition of growth at 10 µM (UO-31): -18.6%; inhibition of growth at 10 µM (M14): 2.49%; inhibition of growth at 10 µM (BT-549): 4.41%
